# Assay results as given in PMC11855827, “High-Throughput Screening of Five Compound Libraries for Anthelmintic Activity and Toxicity Leads to the Discovery of Two Flavonoid Compounds” (International Journal of Molecular Sciences, 2025).
# Read-outs that look alike come from different tables or passages of the source.
# Tested on: C. elegans
# Assay: microbe, parasite or virus in culture
# Conditions: Caenorhabditis elegans
# [1] = 0 h, read-out: Percentage of motility inhibition 0 h
# [2] = 24 h, read-out: Percentage of motility inhibition 24 h
# [3] = 0 h, read-out: Percentage of motility inhibition 0 h, Table S2, C. elegans SS assay, 110 μM, 0 h, averages of 4 data points
# [4] = 24 h, read-out: Percentage of motility inhibition 24 h, Table S2, C. elegans SS assay, 110 μM, 24 h, averages of 4 data points
Structure (SMILES),inhibition at 110 µM [1] [%],inhibition at 110 µM [2] [%],inhibition at 110 µM [3] [%],inhibition at 110 µM [4] [%]
C[C@@H]1O[C@@H](O[C@H]2C(=O)c3c(O)cc(O)cc3O[C@@H]2c2ccc(O)c(O)c2)[C@H](O)[C@H](O)[C@H]1O [Astilbin],31,0,,
O=c1c(O[C@@H]2O[C@H](CO)[C@@H](O)[C@H](O)[C@H]2O)c(-c2ccc(O)cc2)oc2cc(O)cc(O)c12 [Astragalin],,,1,1
O=C1C(O)=C([C@H]2CC[C@H](c3ccc(Cl)cc3)CC2)C(=O)c2ccccc21 [Atovaquone],,,18,2
C=C1CCC[C@]2(C)C[C@]3(O)OC(=O)C(C)=C3C[C@@H]12 [Atractylenolide III],,,3,6
C=C1CCC[C@]2(C)C[C@@H]3OC(=O)C(C)=C3C[C@@H]12 [Atractylenolide II],,,10,2
OCC1=C[C@@H](O)[C@@H]2C=CO[C@@H](O[C@@H]3O[C@H](CO)[C@@H](O)[C@H](O)[C@H]3O)[C@H]12 [Aucubin],,,10,19
O=c1c(O[C@@H]2O[C@@H](CO)[C@H](O)[C@H]2O)c(-c2ccc(O)c(O)c2)oc2cc(O)cc(O)c12 [Avicularin],,,33,21
COc1cc(O)c2c(=O)c(OC)c(-c3ccc(OC)c(O)c3)oc2c1 [Ayanin],0,22,,
C/C=C(\C)C(=O)O[C@H]1C[C@@H](OC(C)=O)[C@@]2(C(=O)OC)CO[C@H]3[C@@H](O)[C@@](C)([C@]45O[C@@]4(C)[C@H]4C[C@@H]5O[C@@H]5OC=C[C@@]54O)[C@H]4[C@]1(CO[C@]4(O)C(=O)OC)[C@@H]32 [Azadirachtin],,,24,4
O=C(O)CCCCCCCC(=O)O [Azelaic acid],,,0,0
CC[C@H]1OC(=O)[C@H](C)[C@@H](O[C@H]2C[C@@](C)(OC)[C@@H](O)[C@H](C)O2)[C@H](C)[C@@H](O[C@@H]2O[C@H](C)C[C@H](N(C)C)[C@H]2O)[C@](C)(O)C[C@@H](C)CN(C)[C@H](C)[C@@H](O)[C@]1(C)O [Azithromycin],,,23,37
Cn1c(N2CCCCS2(=O)=O)nc(C(=O)NCc2ccc(F)cc2)c(O)c1=O [BMS‐707035],,,0,1
C[C@H]1COC2(CCN(c3nc(=O)c4cc(C(F)(F)F)cc([N+](=O)[O-])c4s3)CC2)O1 [BTZ043],,,0,5
CC(=O)O[C@H]1C(=O)[C@@]2(C)[C@H]([C@H](OC(=O)c3ccccc3)[C@]3(O)C[C@H](O)C(C)=C1C3(C)C)[C@]1(OC(C)=O)CO[C@@H]1C[C@@H]2O [Baccatin III],,,0,0
CC(C)=C[C@H]1C[C@](C)(O)[C@@H]2[C@H]3CC[C@@H]4[C@@]5(C)CC[C@H](O[C@@H]6O[C@H](CO)[C@@H](O)[C@H](O[C@@H]7O[C@H](CO)[C@@H](O)[C@H](O)[C@H]7O)[C@H]6O[C@@H]6O[C@@H](CO)[C@H](O)[C@H]6O)C(C)(C)[C@@H]5CC[C@@]4(C)[C@@]34CO[C@@]2(C4)O1 [Bacoside A3],,,3,0
CNC1CCCN(c2c(F)cc3c(=O)c(C(=O)O)cn(C4CC4)c3c2OC)C1 (centres unmarked) [Balofloxacin],,,0,20
COC(=O)C1=CO[C@@H](O[C@@H]2O[C@H](CO)[C@@H](O)[C@H](O)[C@H]2O)[C@H]2[C@@H]1[C@H](O)C[C@]2(C)OC(C)=O [Barlerin],,,12,26
CC(C)=CCc1cc2c(cc1O)O[C@H](c1ccc(O)cc1)CC2=O [Bavachin],,,27,24
NC[C@H]1O[C@H](O[C@H]2[C@H](O)[C@@H](O[C@H]3O[C@H](CO)[C@@H](O)[C@H](N)[C@H]3O)[C@H](N)C[C@@H]2N)[C@H](N)[C@@H](O)[C@@H]1O [Bekanamycin],,,23,10
